The values that follow come from ChEMBL document CHEMBL4371054, “Dual inhibition of Kif15 by oxindole and quinazolinedione chemical probes” (Bioorg Med Chem Lett, 2019).

What is called inhibition is the drop in the measured response relative to a control, in per cent. The IC50 is the midpoint of a concentration-inhibition curve.

Calls of active or inactive are those of the source. No cut-off for these calls is given here.

Assay [1] concerns the target T1, Kinesin-like protein KIF15 (Homo sapiens) (UniProt Q9NS87).
T1 sequence (whole entry): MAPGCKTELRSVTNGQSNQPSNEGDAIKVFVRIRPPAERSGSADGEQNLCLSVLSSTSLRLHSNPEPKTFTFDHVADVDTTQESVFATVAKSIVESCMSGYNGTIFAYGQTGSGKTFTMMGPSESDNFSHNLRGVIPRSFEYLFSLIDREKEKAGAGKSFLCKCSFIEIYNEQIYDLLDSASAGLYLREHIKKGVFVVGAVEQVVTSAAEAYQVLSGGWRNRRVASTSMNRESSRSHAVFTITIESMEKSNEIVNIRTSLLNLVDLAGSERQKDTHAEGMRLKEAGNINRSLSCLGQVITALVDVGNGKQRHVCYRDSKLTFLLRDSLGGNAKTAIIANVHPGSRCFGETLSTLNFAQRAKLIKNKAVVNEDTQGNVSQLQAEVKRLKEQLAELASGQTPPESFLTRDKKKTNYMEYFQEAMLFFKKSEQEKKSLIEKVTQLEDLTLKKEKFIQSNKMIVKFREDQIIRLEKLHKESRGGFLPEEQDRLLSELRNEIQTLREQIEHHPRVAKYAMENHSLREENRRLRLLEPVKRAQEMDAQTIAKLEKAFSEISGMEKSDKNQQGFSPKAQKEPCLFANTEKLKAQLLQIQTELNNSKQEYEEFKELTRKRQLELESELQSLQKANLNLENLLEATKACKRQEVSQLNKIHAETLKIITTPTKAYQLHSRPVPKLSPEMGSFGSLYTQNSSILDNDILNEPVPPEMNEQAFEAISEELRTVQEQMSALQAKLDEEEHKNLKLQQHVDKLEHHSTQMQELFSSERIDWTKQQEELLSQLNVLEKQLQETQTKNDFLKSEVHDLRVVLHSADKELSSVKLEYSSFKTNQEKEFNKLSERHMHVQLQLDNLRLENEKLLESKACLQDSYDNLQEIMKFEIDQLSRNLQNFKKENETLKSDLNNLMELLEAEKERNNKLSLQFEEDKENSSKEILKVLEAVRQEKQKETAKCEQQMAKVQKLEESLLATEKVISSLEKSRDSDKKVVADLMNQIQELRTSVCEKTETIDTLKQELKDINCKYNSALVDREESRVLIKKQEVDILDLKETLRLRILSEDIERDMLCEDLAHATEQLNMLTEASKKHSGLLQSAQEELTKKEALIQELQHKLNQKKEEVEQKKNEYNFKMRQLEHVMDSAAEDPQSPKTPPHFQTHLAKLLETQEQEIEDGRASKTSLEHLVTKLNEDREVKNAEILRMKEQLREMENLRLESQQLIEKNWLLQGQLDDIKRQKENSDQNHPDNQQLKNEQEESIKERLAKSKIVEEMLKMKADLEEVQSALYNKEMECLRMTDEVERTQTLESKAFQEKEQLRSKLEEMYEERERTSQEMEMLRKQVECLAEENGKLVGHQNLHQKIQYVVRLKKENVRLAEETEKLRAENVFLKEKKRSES
Put plainly: Inhibition of recombinant His6-tagged Kif15 ATPase activity (N420 residues) (unknown origin) expressed in HeLa cells at 10 uM using microtubule as substrate preincubated for 15 mins followed by ATP addition and measured after 20 mins by ADP-Glo luminescence assay relative to control. For orientation: ADP-Glo turns the ADP formed in a reaction into a luminescent signal.

The target in assay [2] is T2, Kinesin-like protein KIF15 (Homo sapiens, UniProt Q9NS87).
T2 sequence (Q9NS87 whole entry): T1 sequence (whole entry)
Put plainly: Inhibition of recombinant His6-tagged Kif15 ATPase activity (N420 residues) (unknown origin) expressed in HeLa cells using microtubule as substrate preincubated for 15 mins followed by ATP addition and measured after 20 mins by ADP-Glo luminescence assay.

Assay [3] deals with T3, Kinesin-like protein KIFC1 (Homo sapiens) (UniProt Q9BW19).
T3 sequence (whole entry): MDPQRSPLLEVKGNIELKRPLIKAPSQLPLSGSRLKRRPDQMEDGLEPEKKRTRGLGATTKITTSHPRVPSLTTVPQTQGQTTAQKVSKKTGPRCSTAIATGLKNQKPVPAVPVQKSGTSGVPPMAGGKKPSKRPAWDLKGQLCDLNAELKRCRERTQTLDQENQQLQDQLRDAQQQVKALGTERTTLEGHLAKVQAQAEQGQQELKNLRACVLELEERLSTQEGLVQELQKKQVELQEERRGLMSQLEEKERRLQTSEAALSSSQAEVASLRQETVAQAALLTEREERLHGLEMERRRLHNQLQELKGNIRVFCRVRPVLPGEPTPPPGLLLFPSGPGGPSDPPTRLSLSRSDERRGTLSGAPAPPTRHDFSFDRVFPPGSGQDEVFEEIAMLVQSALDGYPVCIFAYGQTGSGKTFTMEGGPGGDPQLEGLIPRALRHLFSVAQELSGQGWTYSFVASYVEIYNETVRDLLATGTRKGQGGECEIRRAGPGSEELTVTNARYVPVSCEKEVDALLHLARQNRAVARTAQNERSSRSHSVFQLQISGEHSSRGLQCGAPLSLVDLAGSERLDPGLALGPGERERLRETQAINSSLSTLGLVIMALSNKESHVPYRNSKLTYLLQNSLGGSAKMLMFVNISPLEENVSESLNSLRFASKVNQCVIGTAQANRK
Put plainly: Inhibition of recombinant His6-tagged HSET (unknown origin) assessed as reduction in Alexa-594 labelled microtubule gliding at 30 uM measured every 2 secs for 20 secs by epifluorescence microscopic analysis relative to control.

The target in assay [4] is T1, Kinesin-like protein KIF15 (Homo sapiens). Put plainly: Inhibition of Kif15 in TP53-deficient human RPE1 cells assessed as reduction in spindle-bound Kif15 level at 25 uM after 24 hrs by Hoechst 33342 staining based immunofluorescence microscopic analysis relative to control.
For assay [5] the target is unchanged. Put plainly: Inhibition of Kif15 in TP53-deficient human RPE1 cells assessed as reduction in Kif15 level at 25 uM after 24 hrs by Western blot analysis relative to control. Background: Immunoblotting shows a protein as a band on a membrane.
For assay [6] the target is unchanged. Put plainly: Inhibition of Kif15 in TP53-deficient human RPE1 cells assessed as effect on spindle length at 25 uM after 24 hrs by Hoechst 33342 staining based immunofluorescence microscopic analysis (reference value: 11.4 +/- 0.2 um).
Assay [7] shares this target. Put plainly: Inhibition of Kif15 in K51-resistant human KIRC1 cells assessed as cells with monopolar spindles at 25 uM after 24 hrs by Hoechst 33342 staining based immunofluorescence microscopic analysis (reference value: 43 to 49%). Details: scale not given: the % may be the effect or the level left.
Assay [8] has the same target. Put plainly: Inhibition of recombinant His6-tagged Kif15 (N700 residues) (unknown origin) expressed in HeLa cells assessed as reduction in Alexa-594 labelled microtubule gliding at 750 nM measured every 2 secs for 20 secs by epifluorescence microscopic analysis (reference value: 1%). Format: cell-based.

On to `O=C1Nc2ccc(C(=O)c3ccco3)cc2/C1=C/c1cc(Cl)c(O)c(Cl)c1`, for which the inhibition in assay [1] is 76%; in assay [3], 5.3%; in assay [5], 60%; in assay [8], 49%. In addition, the IC50 in assay [2] was found to be 820 nM. Besides, the fold change (FC) in assay [4] came out at 3. The inhibition entry in assay [6] was “inactive”. For the same molecule, the Activity in assay [7] was 95%.
